Assay results as given in patent EP0670711B1, “ANTIFUNGAL MOUTHCARE COMPOSITIONS” (AMBI Inc., priority 1992, dated 1994).
≈ marks a conversion by molar mass, not a printed value. Read-outs that look alike come from different tables or passages of the source.

How the values were obtained:
Assay type in all cases: cell-based
Candida tropicalis = test: nominal inhibitory concentration (NIC) assay; details: read-out: NIC
Strep. mitis = test: nominal inhibitory concentration (NIC) assay; details: Streptococcus mitis, read-out: NIC
Strep. salivarius = test: nominal inhibitory concentration (NIC) assay; details: Streptococcus salivarius, read-out: NIC
Act. israelii = test: nominal inhibitory concentration (NIC) assay; details: Actinomyces israelii, read-out: NIC
Porph. gingivalis = test: nominal inhibitory concentration (NIC) assay; details: Porphyromonas gingivalis, read-out: NIC
Bact. intermedius = test: nominal inhibitory concentration (NIC) assay; details: Prevotella intermedia, read-out: NIC
Strep. sanguis = test: nominal inhibitory concentration (NIC) assay; details: read-out: NIC
Act. naeslundii = test: nominal inhibitory concentration (NIC) assay; details: Actinomyces naeslundii, read-out: NIC
Strep.pyogenes = test: nominal inhibitory concentration (NIC) assay; details: Streptococcus pyogenes, read-out: NIC
[1] = system: all the organisms shown in the Example 25 Table 1; test: NIC assay, summary over all organisms of Table 1; details: read-out: levels needed to inhibit all the desired oral microrganisms
Strep. milleri = test: nominal inhibitory concentration (NIC) assay; details: read-out: NIC
Candida kefyr = test: nominal inhibitory concentration (NIC) assay; details: Kluyveromyces marxianus, read-out: NIC
Staph.aureus = test: nominal inhibitory concentration (NIC) assay; details: Staphylococcus aureus, read-out: NIC
Strep. agalactiæ = test: nominal inhibitory concentration (NIC) assay; details: read-out: NIC
Peptostrepto. micros = test: nominal inhibitory concentration (NIC) assay; details: read-out: NIC
Fuso. nucleatum = test: nominal inhibitory concentration (NIC) assay; details: Fusobacterium nucleatum, read-out: NIC
Act. odontolyticus = test: nominal inhibitory concentration (NIC) assay; details: Schaalia odontolytica, read-out: NIC
G.vaginalis = test: nominal inhibitory concentration (NIC) assay; details: Gardnerella vaginalis, read-out: NIC
Candida organisms = test: NIC assay, summary for Candida; details: for MIC: read-out: levels for Candida inhibition; for inhibitory activity against candida species: result in words, NIC assay
Strep.mutans = test: nominal inhibitory concentration (NIC) assay; details: Streptococcus mutans, read-out: NIC
Bact. ureolyticus = test: nominal inhibitory concentration (NIC) assay; details: read-out: NIC
S sanguis NCTC 10904 = test: zone diffusion assay; details: solution with 500ppm of each agent
From the text: (§1) The assay was repeated for each of cetyl pyridinium chloride, chlorhexidine or triclosan individually. […]

C tropicalis NCTC 3114 = test: zone diffusion assay; details: solution with 500ppm of each agent
From the text: as §1

A actinomyces NCTC 9709 = test: zone diffusion assay; details: solution with 500ppm of each agent
From the text: as §1

C kefyr NCTC 3106 = test: zone diffusion assay; details: solution with 500ppm of each agent
From the text: as §1

C albicans NCTC 3089 = test: zone diffusion assay; details: solution with 500ppm of each agent
From the text: as §1

F nucleatum NCTC 10562 = test: zone diffusion assay; details: solution with 500ppm of each agent
From the text: as §1

S mutans NCTC 11061 = test: zone diffusion assay; details: solution with 500ppm of each agent
From the text: as §1

W recta NCTC 11489 = test: zone diffusion assay; details: solution with 500ppm of each agent
From the text: as §1

Candida albicans = test: nominal inhibitory concentration (NIC) assay; details: read-out: NIC
Lacto odontolyticus = test: nominal inhibitory concentration (NIC) assay; details: read-out: NIC
Act. actinomycetem = test: nominal inhibitory concentration (NIC) assay; details: read-out: NIC
Strep mitior = test: nominal inhibitory concentration (NIC) assay; details: read-out: NIC

## [H]/N=C(\N/C(=N/[H])NCCCCCCNC(=N)NC(=N)Nc1ccc(Cl)cc1)Nc1ccc(Cl)cc1 [CHX, chlorhexidine]
Candida tropicalis
  MIC: 0.98 µg/mL (≈ 1.94 µM)
Strep. mitis; Strep. mitis
  MIC: 1.5 µg/mL (≈ 2.97 µM)
Strep. salivarius; Strep. salivarius
  MIC: 1.44 µg/mL (≈ 2.85 µM)
Act. israelii; Act. israelii
  MIC: 4.11 µg/mL (≈ 8.13 µM)
Porph. gingivalis; Porph. gingivalis
  MIC: 2.36 µg/mL (≈ 4.67 µM)
Bact. intermedius; Bact. intermedius
  MIC: 2.49 µg/mL (≈ 4.93 µM)
Strep. sanguis; Strep. sanguis
  MIC: 0.86 µg/mL (≈ 1.7 µM)
Act. naeslundii; Act. naeslundii
  MIC: 2.01 µg/mL (≈ 3.98 µM)
Strep.pyogenes; Strep.pyogenes
  MIC: 0.16 µg/mL (≈ 0.317 µM)
[1]
  MIC: ~8.46 µg/mL (≈ 16.7 µM)
Strep. milleri; Strep. milleri
  MIC: 1.58 µg/mL (≈ 3.13 µM)
Candida kefyr; Candida kefyr
  MIC: 0.42 µg/mL (≈ 0.831 µM)
Staph.aureus; Staph.aureus
  MIC: 0.54 µg/mL (≈ 1.07 µM)
Strep. agalactiæ; Strep. agalactiæ
  MIC: 0.41 µg/mL (≈ 0.811 µM)
Peptostrepto. micros; Peptostrepto. micros
  MIC: 8.46 µg/mL (≈ 16.7 µM)
Fuso. nucleatum; Fuso. nucleatum
  MIC: 0.64 µg/mL (≈ 1.27 µM)
Act. odontolyticus; Act. odontolyticus
  MIC: 3.37 µg/mL (≈ 6.67 µM)
G.vaginalis; G.vaginalis
  MIC: 1.3 µg/mL (≈ 2.57 µM)
Candida organisms; Candida organisms
  MIC: 1.71 µg/mL (≈ 3.38 µM)
Candida organisms
  inhibitory activity against candida species: effective
Strep.mutans; Strep.mutans
  MIC: 3.94 µg/mL (≈ 7.79 µM)
Bact. ureolyticus; Bact. ureolyticus
  MIC: 0.69 µg/mL (≈ 1.37 µM)
S sanguis NCTC 10904
  mean zones: 22.76 mm
C tropicalis NCTC 3114
  mean zones: 17.36 mm
A actinomyces NCTC 9709
  mean zones: 35.68 mm
C kefyr NCTC 3106
  mean zones: 17.03 mm
C albicans NCTC 3089
  mean zones: 14.93 mm
F nucleatum NCTC 10562
  mean zones: 36.97 mm
S mutans NCTC 11061
  mean zones: 29.68 mm
W recta NCTC 11489
  mean zones: 32.35 mm
Candida albicans
  MIC: 1.71 µg/mL (≈ 3.38 µM)
Lacto odontolyticus; Lacto odontolyticus
  MIC: 1.88 µg/mL (≈ 3.72 µM)
Act. actinomycetem; Act. actinomycetem
  MIC: 0.53 µg/mL (≈ 1.05 µM)
Strep mitior; Strep mitior
  MIC: 4.55 µg/mL (≈ 9 µM)

## CCCCCCCCCCCCCCCC[n+]1ccccc1 [CPC, cetyl pyridinium chloride]
Candida tropicalis
  MIC: 0.48 µg/mL
Strep. mitis
  MIC: 2.23 µg/mL
Strep. salivarius
  MIC: 2.36 µg/mL
Porph. gingivalis
  MIC: 0.94 µg/mL
Bact. intermedius
  MIC: 4.68 µg/mL
Strep. sanguis
  MIC: 2.12 µg/mL
Act. naeslundii
  MIC: 4.61 µg/mL
Strep.pyogenes
  MIC: 0.78 µg/mL
Strep. milleri
  MIC: 4.58 µg/mL
Candida kefyr
  MIC: 0.61 µg/mL
Staph.aureus
  MIC: 0.66 µg/mL
Strep. agalactiæ
  MIC: 0.78 µg/mL
Peptostrepto. micros
  MIC: 4.96 µg/mL
Fuso. nucleatum
  MIC: 0.82 µg/mL
Act. odontolyticus
  MIC: 1.23 µg/mL
G.vaginalis
  MIC: 0.3 µg/mL
Strep.mutans
  MIC: 3.1 µg/mL
Bact. ureolyticus
  MIC: 0.56 µg/mL
S sanguis NCTC 10904
  mean zones: 14.44 mm
C tropicalis NCTC 3114
  mean zones: 10.39 mm
A actinomyces NCTC 9709
  mean zones: 19.41 mm
C kefyr NCTC 3106
  mean zones: 10.43 mm
C albicans NCTC 3089
  mean zones: 9.79 mm
F nucleatum NCTC 10562
  mean zones: 18.99 mm
S mutans NCTC 11061
  mean zones: 17.05 mm
W recta NCTC 11489
  mean zones: 17.15 mm
Lacto odontolyticus
  MIC: 0.83 µg/mL
Act. actinomycetem
  MIC: 1.02 µg/mL
Strep mitior
  MIC: 1.22 µg/mL

## Oc1cc(Cl)ccc1Oc1ccc(Cl)cc1Cl [TCN, triclosan]
Candida tropicalis
  MIC: 0.35 µg/mL (≈ 1.21 µM)
Strep. mitis
  MIC: 3.94 µg/mL (≈ 13.6 µM)
Strep. salivarius
  MIC: 4.05 µg/mL (≈ 14 µM)
Act. israelii
  MIC: 3.19 µg/mL (≈ 11 µM)
Porph. gingivalis
  MIC: 4 µg/mL (≈ 13.8 µM)
Bact. intermedius
  MIC: 3.72 µg/mL (≈ 12.8 µM)
Strep. sanguis
  MIC: 0.88 µg/mL (≈ 3.04 µM)
Act. naeslundii
  MIC: 1.98 µg/mL (≈ 6.84 µM)
Strep.pyogenes
  MIC: 4.35 µg/mL (≈ 15 µM)
[1]
  MIC: ~7.65 µg/mL (≈ 26.4 µM)
Strep. milleri
  MIC: 1.08 µg/mL (≈ 3.73 µM)
Candida kefyr
  MIC: 0.46 µg/mL (≈ 1.59 µM)
Staph.aureus
  MIC: 0.09 µg/mL (≈ 0.311 µM)
Strep. agalactiæ
  MIC: 4.96 µg/mL (≈ 17.1 µM)
Peptostrepto. micros
  MIC: 6.76 µg/mL (≈ 23.3 µM)
Fuso. nucleatum
  MIC: 1.6 µg/mL (≈ 5.53 µM)
Act. odontolyticus
  MIC: 3.02 µg/mL (≈ 10.4 µM)
G.vaginalis
  MIC: 0.41 µg/mL (≈ 1.42 µM)
Candida organisms; Candida
  MIC: ~1 µg/mL (≈ 3.45 µM)
Candida organisms
  inhibitory activity against candida species: effective
Strep.mutans
  MIC: 1.11 µg/mL (≈ 3.83 µM)
Bact. ureolyticus
  MIC: 7.65 µg/mL (≈ 26.4 µM)
S sanguis NCTC 10904
  mean zones: 28.97 mm
C tropicalis NCTC 3114
  mean zones: 13.66 mm
A actinomyces NCTC 9709
  mean zones: 35.92 mm
C kefyr NCTC 3106
  mean zones: 21.99 mm
C albicans NCTC 3089
  mean zones: 16.99 mm
F nucleatum NCTC 10562
  mean zones: 33.98 mm
S mutans NCTC 11061
  mean zones: 32.82 mm
W recta NCTC 11489
  mean zones: 37.20 mm
Candida albicans
  MIC: 1 µg/mL (≈ 3.45 µM)
Lacto odontolyticus
  MIC: 7.49 µg/mL (≈ 25.9 µM)
Act. actinomycetem
  MIC: 1.69 µg/mL (≈ 5.84 µM)
Strep mitior
  MIC: 4.23 µg/mL (≈ 14.6 µM)
